{"source": "paper PMC5218480", "about": "(PLoS ONE, 2017)", "test_system": "MV-4-11 cells", "assay": "Gene expression microarray analysis (Affymetrix PrimeView) and GSEA", "assay_type": "cell-based, human", "set-up": "RFU PODN (11730768_x_at) / Fold change /veh PODN (11730768_x_at) / RFU LINC00158 (11744669_a_at) / Fold change /veh LINC00158 (11744669_a_at) / RFU DUSP10 (11751237_a_at) / Fold change /veh DUSP10 (11751237_a_at) / RFU ID3 (11757404_x_at) / Fold change /veh ID3 (11757404_x_at) / RFU PLEKHG5 (11737974_s_at) / Fold change /veh PLEKHG5 (11737974_s_at) / RFU LRRC4B (11730491_at) / Fold change /veh LRRC4B (11730491_at) / RFU GIMAP4 (11747438_a_at) / Fold change /veh GIMAP4 (11747438_a_at) / RFU KRT8 (11758183_x_at) / Fold change /veh KRT8 (11758183_x_at) / RFU CNN1 (11734310_a_at) / Fold change /veh CNN1 (11734310_a_at) / RFU VPS37D (11726825_at) / Fold change /veh VPS37D (11726825_at) / RFU C10orf10 (11716522_x_at) / Fold change /veh C10orf10 (11716522_x_at) / RFU KIR2DL2 /// KIR2DL4 /// KIR2DL5A /// KIR2DL5B /// KIR2DS1 /// KIR2DS2 /// KIR2DS3 /// KIR2DS4 /// KIR3DL3 /// KIR3DL3 /// KIR3DS1 (11738374_at) / Fold change /veh KIR2DL2 /// KIR2DL4 /// KIR2DL5A /// KIR2DL5B /// KIR2DS1 /// KIR2DS2 /// KIR2DS3 /// KIR2DS4 /// KIR3DL3 /// KIR3DL3 /// KIR3DS1 (11738374_at) / RFU C1QL1 (11718748_at) / Fold change /veh C1QL1 (11718748_at) / RFU TMPRSS4 (11747572_a_at) / Fold change /veh TMPRSS4 (11747572_a_at) / RFU HAMP (11756126_x_at) / Fold change /veh HAMP (11756126_x_at) / RFU RNFT2 (11725882_a_at) / Fold change /veh RNFT2 (11725882_a_at) / RFU NR4A2 (11747474_a_at) / Fold change /veh NR4A2 (11747474_a_at) / RFU ABCC12 (11746883_a_at) / Fold change /veh ABCC12 (11746883_a_at) / RFU TMEM136 (11760407_x_at) / Fold change /veh TMEM136 (11760407_x_at) / RFU CLDN22 /// WWC2 (11732394_at) / Fold change /veh CLDN22 /// WWC2 (11732394_at) / RFU HLA-DPB1 (11760878_x_at) / Fold change /veh HLA-DPB1 (11760878_x_at) / RFU SPINT1 (11716480_a_at) / Fold change /veh SPINT1 (11716480_a_at) / RFU GAP43 (11754022_s_at) / Fold change /veh GAP43 (11754022_s_at) / RFU A4GNT (11735810_at) / Fold change /veh A4GNT (11735810_at) / RFU PRB3 (11715151_x_at) / Fold change /veh PRB3 (11715151_x_at) / RFU TUBB4B (11761932_at) / Fold change /veh TUBB4B (11761932_at) / RFU CAPN14 (11732068_a_at) / Fold change /veh CAPN14 (11732068_a_at) / RFU TMCC2 (11721928_a_at) / Fold change /veh TMCC2 (11721928_a_at) / RFU IRGQ (11745062_a_at) / Fold change /veh IRGQ (11745062_a_at) / RFU FAM174B (11720279_a_at) / Fold change /veh FAM174B (11720279_a_at) / RFU TMPRSS4 (11748680_a_at) / Fold change /veh TMPRSS4 (11748680_a_at) / RFU FAM212B (11763350_a_at) / Fold change /veh FAM212B (11763350_a_at) / RFU PLEKHG5 (11743358_a_at) / Fold change /veh PLEKHG5 (11743358_a_at) / RFU ZSCAN30 (11745921_a_at) / Fold change /veh ZSCAN30 (11745921_a_at) / RFU CMKLR1 (11741424_a_at) / Fold change /veh CMKLR1 (11741424_a_at) / RFU LOC101060620 /// MAPK8IP1 (11723275_at) / Fold change /veh LOC101060620 /// MAPK8IP1 (11723275_at) / RFU SPTSSB (11747773_x_at) / Fold change /veh SPTSSB (11747773_x_at) / RFU PRSS12 (11739890_at) / Fold change /veh PRSS12 (11739890_at) / RFU BIN1 (11741810_x_at) / Fold change /veh BIN1 (11741810_x_at) / RFU WNT11 (11732464_a_at) / Fold change /veh WNT11 (11732464_a_at) / RFU C10orf10 (11716521_a_at) / Fold change /veh C10orf10 (11716521_a_at) / RFU C5orf56 (11738089_at) / Fold change /veh C5orf56 (11738089_at) / RFU CYB561 (11721691_x_at) / Fold change /veh CYB561 (11721691_x_at) / RFU ANKRD19P (11752326_a_at) / Fold change /veh ANKRD19P (11752326_a_at) / RFU OR2T12 /// OR2T33 /// OR2T8 (11738714_s_at) / Fold change /veh OR2T12 /// OR2T33 /// OR2T8 (11738714_s_at) / RFU VCAN (11748164_a_at) / Fold change /veh VCAN (11748164_a_at) / RFU JSRP1 (11732532_at) / Fold change /veh JSRP1 (11732532_at) / RFU KRTAP10-11 (11738290_x_at) / Fold change /veh KRTAP10-11 (11738290_x_at) / RFU MYO3A (11730013_a_at) / Fold change /veh MYO3A (11730013_a_at) / RFU EBF3 (11725865_a_at) / Fold change /veh EBF3 (11725865_a_at) / RFU CAMK2N1 (11719241_x_at) / Fold change /veh CAMK2N1 (11719241_x_at) / RFU C5orf56 (11738088_a_at) / Fold change /veh C5orf56 (11738088_a_at) / RFU OLFML3 (11715873_a_at) / Fold change /veh OLFML3 (11715873_a_at) / RFU LOC100653217 /// NTM (11731650_a_at) / Fold change /veh LOC100653217 /// NTM (11731650_a_at) / RFU MAPK11 (11762145_a_at) / Fold change /veh MAPK11 (11762145_a_at) / RFU FIZ1 (11724087_x_at) / Fold change /veh FIZ1 (11724087_x_at) / RFU OASL (11726364_x_at) / Fold change /veh OASL (11726364_x_at) / RFU SOX15 (11748057_x_at) / Fold change /veh SOX15 (11748057_x_at) / RFU CD79A (11719716_a_at) / Fold change /veh CD79A (11719716_a_at) / RFU HIST1H1D (11736915_at) / Fold change /veh HIST1H1D (11736915_at) / RFU CASKIN2 (11723855_a_at) / Fold change /veh CASKIN2 (11723855_a_at) / RFU LOC730098 (11760151_x_at) / Fold change /veh LOC730098 (11760151_x_at) / RFU OR4N2 (11742367_at) / Fold change /veh OR4N2 (11742367_at) / RFU PRRT2 (11749266_a_at) / Fold change /veh PRRT2 (11749266_a_at) / RFU SNX32 (11753110_a_at) / Fold change /veh SNX32 (11753110_a_at) / RFU CDHR5 (11726645_a_at) / Fold change /veh CDHR5 (11726645_a_at) / RFU RCAN1 (11760418_a_at) / Fold change /veh RCAN1 (11760418_a_at) / RFU FAM167A (11723789_a_at) / Fold change /veh FAM167A (11723789_a_at) / RFU FAM26E (11764081_at) / Fold change /veh FAM26E (11764081_at) / RFU ISYNA1 (11749810_s_at) / Fold change /veh ISYNA1 (11749810_s_at) / RFU ACY1 (11761880_at) / Fold change /veh ACY1 (11761880_at) / RFU 11764098_at / Fold change /veh 11764098_at / RFU SAMD14 (11745864_x_at) / Fold change /veh SAMD14 (11745864_x_at) / RFU NPB (11741838_a_at) / Fold change /veh NPB (11741838_a_at) / RFU TMPRSS6 (11731388_a_at) / Fold change /veh TMPRSS6 (11731388_a_at) / RFU KRTAP10-2 (11738614_at) / Fold change /veh KRTAP10-2 (11738614_at) / RFU ARHGAP8 /// PRR5-ARHGAP8 (11727945_x_at) / Fold change /veh ARHGAP8 /// PRR5-ARHGAP8 (11727945_x_at) / RFU KRTAP5-7 /// NADSYN1 (11734609_at) / Fold change /veh KRTAP5-7 /// NADSYN1 (11734609_at) / RFU RASL12 (11751679_a_at) / Fold change /veh RASL12 (11751679_a_at) / RFU CDKN2B (11736163_a_at) / Fold change /veh CDKN2B (11736163_a_at) / RFU PRF1 (11729649_at) / Fold change /veh PRF1 (11729649_at) / RFU, ZNF638 /// ZNF638-IT1 / Fold change vs veh, ZNF638 /// ZNF638-IT1 / RFU, PANK3 / Fold change vs veh, PANK3 / RFU, SH3YL1 / Fold change vs veh, SH3YL1 / RFU, ZEB2 / Fold change vs veh, ZEB2 / RFU, NRIP1 / Fold change vs veh, NRIP1 / RFU, PTTG1IP / Fold change vs veh, PTTG1IP / RFU, CAPN2 / Fold change vs veh, CAPN2 / RFU, MED14 / Fold change vs veh, MED14 / RFU, SNORA58 / Fold change vs veh, SNORA58 / RFU, C1orf63 / Fold change vs veh, C1orf63 / RFU, LRRFIP1 / Fold change vs veh, LRRFIP1 / RFU, NDUFAF7 / Fold change vs veh, NDUFAF7 / RFU, SLC12A2 / Fold change vs veh, SLC12A2 / RFU, IBTK / Fold change vs veh, IBTK / RFU, ESF1 / Fold change vs veh, ESF1 / Fold change vs veh, TMEM50B / RFU, TAOK1 / Fold change vs veh, TAOK1 / RFU, ACBD3 / Fold change vs veh, ACBD3 / RFU, TMA16 / Fold change vs veh, TMA16 / RFU, RWDD3 / Fold change vs veh, RWDD3 / RFU, BCAT1 / Fold change vs veh, BCAT1 / RFU, EDEM3 / Fold change vs veh, EDEM3 / RFU, TMEM33 / Fold change vs veh, TMEM33 / RFU, WDR75 / Fold change vs veh, WDR75 / RFU, AHCTF1 / Fold change vs veh, AHCTF1 / RFU, TFRC / Fold change vs veh, TFRC / RFU, ZDHHC17 / Fold change vs veh, ZDHHC17 / RFU, NOM1 / Fold change vs veh, NOM1 / RFU, ARL8B / Fold change vs veh, ARL8B / RFU, ZBTB11 / Fold change vs veh, ZBTB11 / RFU, TAMM41 / Fold change vs veh, TAMM41 / RFU, KIAA1704 /// LOC100996395 / Fold change vs veh, KIAA1704 /// LOC100996395 / RFU, ING1 / Fold change vs veh, ING1 / RFU, TRMT61B / Fold change vs veh, TRMT61B / RFU, FUBP3 / Fold change vs veh, FUBP3 / RFU, TP53 / Fold change vs veh, TP53 / RFU, TNKS2 / Fold change vs veh, TNKS2 / RFU, ZFP14 / Fold change vs veh, ZFP14 / RFU, ACTR2 / Fold change vs veh, ACTR2 / RFU, PPP3R1 / Fold change vs veh, PPP3R1 / RFU, PIK3R1 / Fold change vs veh, PIK3R1 / RFU, HNRNPA1 / Fold change vs veh, HNRNPA1 / RFU, RNF170 / Fold change vs veh, RNF170 / RFU, ZNF28 / Fold change vs veh, ZNF28 / RFU, RNGTT / Fold change vs veh, RNGTT / RFU, OGT / Fold change vs veh, OGT / RFU, BRD1 / Fold change vs veh, BRD1 / RFU, MARS / Fold change vs veh, MARS / RFU, ZNF655 / Fold change vs veh, ZNF655 / RFU, FAHD1 / Fold change vs veh, FAHD1 / RFU, BDP1 / Fold change vs veh, BDP1 / RFU, LRRCC1 / Fold change vs veh, LRRCC1 / RFU, ARID1A / Fold change vs veh, ARID1A / RFU, ZNF146 / Fold change vs veh, ZNF146 / RFU, ZNF330 / Fold change vs veh, ZNF330 / RFU, GPN3 / Fold change vs veh, GPN3 / RFU, C9orf123 / Fold change vs veh, C9orf123 / RFU, N4BP2L2 / Fold change vs veh, N4BP2L2 / RFU, ARFIP1 / Fold change vs veh, ARFIP1 / RFU, FAM179B / Fold change vs veh, FAM179B / RFU, BCL10 / Fold change vs veh, BCL10 / RFU, UHRF1BP1L / Fold change vs veh, UHRF1BP1L / RFU, BET1 / Fold change vs veh, BET1 / RFU, CNOT2 / Fold change vs veh, CNOT2 / RFU, ZNF268 / Fold change vs veh, ZNF268 / Fold change vs veh, ZNF507 / RFU, DGCR2 / Fold change vs veh, DGCR2 / RFU, WDSUB1 / Fold change vs veh, WDSUB1 / Fold change vs veh, HSP90B1 /// MIR3652 / RFU, ADSS / Fold change vs veh, ADSS / RFU, GK / Fold change vs veh, GK / RFU, ZNF148 / Fold change vs veh, ZNF148 / RFU, TAF9 / Fold change vs veh, TAF9 / RFU, SLC1A5 / Fold change vs veh, SLC1A5 / RFU, SLMO2 / Fold change vs veh, SLMO2 / RFU, ABCC4 / Fold change vs veh, ABCC4 / RFU, LOC101060439 /// RAP1B / Fold change vs veh, LOC101060439 /// RAP1B / RFU, RFX7 / Fold change vs veh, RFX7 / RFU, GTPBP10 / Fold change vs veh, GTPBP10 / RFU, CNEP1R1 / Fold change vs veh, CNEP1R1 / RFU, BIVM-ERCC5 /// ERCC5 / Fold change vs veh, BIVM-ERCC5 /// ERCC5 / RFU, ILF3 / Fold change vs veh, ILF3 / RFU 11762660_at / Fold change /veh 11762660_at / RFU VCAN (11757783_s_at) / Fold change /veh VCAN (11757783_s_at) / RFU DDX43 (11728927_at) / Fold change /veh DDX43 (11728927_at) / RFU KRT8 (11758188_x_at) / Fold change /veh KRT8 (11758188_x_at) / RFU NKD1 (11759106_at) / Fold change /veh NKD1 (11759106_at) / RFU SRD5A1 (11742802_a_at) / Fold change /veh SRD5A1 (11742802_a_at) / RFU TPSAB1 /// TPSB2 (11721975_s_at) / Fold change /veh TPSAB1 /// TPSB2 (11721975_s_at) / RFU GSTM3 (11746129_a_at) / Fold change /veh GSTM3 (11746129_a_at) / RFU IL23R (11737362_x_at) / Fold change /veh IL23R (11737362_x_at) / RFU TMEM51 (11727254_a_at) / Fold change /veh TMEM51 (11727254_a_at) / RFU PIWIL2 (11732686_x_at) / Fold change /veh PIWIL2 (11732686_x_at) / RFU ORM1 (11744905_x_at) / Fold change /veh ORM1 (11744905_x_at) / RFU CCDC152 (11743942_at) / Fold change /veh CCDC152 (11743942_at) / RFU ECM1 (11717891_a_at) / Fold change /veh ECM1 (11717891_a_at) / RFU IL23R (11748794_a_at) / Fold change /veh IL23R (11748794_a_at) / RFU TNFAIP8L3 (11732012_x_at) / Fold change /veh TNFAIP8L3 (11732012_x_at) / RFU MBOAT4 (11741988_at) / Fold change /veh MBOAT4 (11741988_at) / RFU 11764193_at / Fold change /veh 11764193_at / RFU TMEM53 (11763286_at) / Fold change /veh TMEM53 (11763286_at) / RFU MAGEB2 (11727129_at) / Fold change /veh MAGEB2 (11727129_at) / RFU TMEM200A (11744735_a_at) / Fold change /veh TMEM200A (11744735_a_at) / RFU CCDC152 (11751479_a_at) / Fold change /veh CCDC152 (11751479_a_at) / RFU FAM211A (11726209_a_at) / Fold change /veh FAM211A (11726209_a_at) / RFU RGS16 (11746705_a_at) / Fold change /veh RGS16 (11746705_a_at) / RFU VCAN (11755009_s_at) / Fold change /veh VCAN (11755009_s_at) / RFU RHOB (11743442_s_at) / Fold change /veh RHOB (11743442_s_at) / RFU RGS16 (11720943_a_at) / Fold change /veh RGS16 (11720943_a_at) / RFU RGS16 (11720944_at) / Fold change /veh RGS16 (11720944_at) / RFU, VPS4B / Fold change vs veh, VPS4B / RFU, CREB1 / Fold change vs veh, CREB1 / RFU, DNAJC13 / Fold change vs veh, DNAJC13 / RFU, GNAQ / Fold change vs veh, GNAQ / RFU, CDK5R1 / Fold change vs veh, CDK5R1 / RFU, ZRANB3 / Fold change vs veh, ZRANB3 / RFU, CUL4A / Fold change vs veh, CUL4A / RFU, CCNY / Fold change vs veh, CCNY / RFU, UFL1 / Fold change vs veh, UFL1 / RFU, COG3 / Fold change vs veh, COG3 / RFU, DIAPH2 / Fold change vs veh, DIAPH2 / RFU, SKA2 / Fold change vs veh, SKA2 / RFU, AFF3 / Fold change vs veh, AFF3 / RFU, LMF1 / Fold change vs veh, LMF1 / RFU, IPO11 / Fold change vs veh, IPO11 / RFU, DFFB / Fold change vs veh, DFFB / RFU, FOXP1 / Fold change vs veh, FOXP1 / RFU, CARD8 / Fold change vs veh, CARD8 / RFU, STRN3 / Fold change vs veh, STRN3 / RFU, ADK / Fold change vs veh, ADK / RFU, RASSF2 / Fold change vs veh, RASSF2 / RFU, WIPF1 / Fold change vs veh, WIPF1 / RFU, LARP1B / Fold change vs veh, LARP1B / RFU, RASA1 / Fold change vs veh, RASA1 / RFU, RB1 / Fold change vs veh, RB1 / RFU, PPFIA1 / Fold change vs veh, PPFIA1 / RFU, MAT2A / Fold change vs veh, MAT2A / RFU, CCT5 / Fold change vs veh, CCT5 / RFU, WDR92 / Fold change vs veh, WDR92 / RFU, CUX1 / Fold change vs veh, CUX1 / RFU, TTC7A / Fold change vs veh, TTC7A / RFU, TMEM135 / Fold change vs veh, TMEM135 / RFU, DEPTOR / Fold change vs veh, DEPTOR / RFU, CPM / Fold change vs veh, CPM / RFU, DNAJB6 / Fold change vs veh, DNAJB6 / RFU, CACNA2D3 / Fold change vs veh, CACNA2D3 / RFU, DTX4 / Fold change vs veh, DTX4 / RFU, TFCP2 / Fold change vs veh, TFCP2 / RFU, GMCL1 /// GMCL1P1 / Fold change vs veh, GMCL1 /// GMCL1P1 / RFU, AEBP2 / Fold change vs veh, AEBP2 / RFU, SNHG1 /// SNORD22 /// SNORD25 /// SNORD26 /// SNORD27 /// SNORD28 /// SNORD29 /// SNORD31 / Fold change vs veh, SNHG1 /// SNORD22 /// SNORD25 /// SNORD26 /// SNORD27 /// SNORD28 /// SNORD29 /// SNORD31 / Fold change (Aza/veh), C12orf56 (ProbeSet 11735607_a_at) / Fold change (ACY-1035/veh), C12orf56 (ProbeSet 11735607_a_at) / Fold change (Aza/veh), FGFR1OP (ProbeSet 11751329_s_at) / Fold change (ACY-1035/veh), FGFR1OP (ProbeSet 11751329_s_at) / Fold change (Aza/veh), VPS36 (ProbeSet 11739960_a_at) / Fold change (ACY-1035/veh), VPS36 (ProbeSet 11739960_a_at) / RFU SYPL1 (11715823_x_at) / Fold change /veh SYPL1 (11715823_x_at) / RFU IGFBP7 (11715501_s_at) / Fold change /veh IGFBP7 (11715501_s_at) / RFU REEP3 (11722064_at) / Fold change /veh REEP3 (11722064_at) / RFU IGLL1 (11728026_x_at) / Fold change /veh IGLL1 (11728026_x_at): dose or concentration left out as unconfirmed", "conditions": "ProbeSet 11743580_s_at; LIST B"}
{"compound": "Nc1ncn([C@@H]2O[C@H](CO)[C@@H](O)[C@H]2O)c(=O)n1", "note": "[azacitidine]", "values": [{"measurement": "RFU, ACTR2", "result": 932.68, "unit": "RFU"}]}
